Experimental data as given in article PMC7450057, “Enhancing intracellular accumulation and target engagement of PROTACs with reversible covalent chemistry” (Nature Communications, 2020).
Where “and” joins values, the source holds several entries; their conditions need not be identical. Equal entries are not always repeated.

Legend:
Assay type in all cases: in vivo, ICR mice
IKZF3 = experiment: Splenic IKZF3 level in mice after single RC-1 injection (western blot); conditions: for IKZF3 level, mean: Figure 5d, DMSO = 100; for IKZF3 quantification: Supplementary Figure 8, individual animals
Description: (§1) To investigate the protein degradation effect of RC-1 in vivo, mice were subjected to single RC-1 administration at the dose of 50 or 100 mg kg^−1 (i.p.) or seven once-daily RC-1 administration at the dose of 20 mg kg^−1 (i.p.) (n = 2–3). Twenty-four hours after the one-time RC-1 injection or 24 h after the 7th injection, mice were anesthetized with isoflurane and the whole spleen was dissected and stored at −80 °C for western blot analysis of protein level.
(§2) Supplementary Figure 8. Protein degradation by BTK PROTAC RC-1 in mouse spleen. ICR mice were subjected to single IP injection of RC-1 at the dose of 50 mg/kg (n = 4) or 100 mg/kg (n = 3) and spleens were harvested 24 h after injection. (a) The splenic p-BTK(Y233), BTK, IKZF1 and IKZF3 levels were measured with Western blot. (b). Quantification of protein levels shown in (a). Data are presented as mean values ± SEM.
(§3) Asterisks indicate that the differences between samples are statistically significant, using two-tailed, unpaired t- […]
(§4) test (* p < 0.05; significant).
(§5) (1 picture or pasted object on this page, not shown here)

[1] = Pharmacokinetics of RC-1 in mice
Description: The pharmacokinetic profile of the BTK PROTAC RC-1 was evaluated in female ICR mice (weighing 22-28 g, n = 3). RC-1 was formulated in a […] solvent (30% PEG-400, 5% Tween 80, and 5% DMSO in deionized water) and was administered in a single IP injection (20 mg kg^−1). Blood samples (25 µL) were withdrawn from the tail vein at the time points of 10 min, 30 min, 1 h, 2 h, 4 h, 8 h, and up to 24 h after dosing. The blood samples were collected into 1.5 mL centrifuge tubes coated with 0.5 M EDTA and were immediately centrifuged at 12,000 × g at 4 °C for 15 min. The resultant plasma was extracted with 9 vol of acetonitrile (containing internal standard: 250 nM of RNC-Ctrl) and then were centrifuged at the same conditions described above. The supernatant was stored at −80 °C for liquid chromatography-mass spectrometry analysis. The standard curve was established by serially diluted RC-1 in plasma collected from naïve mice (from 5.0 to 0.003 μg mL^−1, 4-fold dilution). The PK parameters were calculated with the Microsoft Excel PK Solver.

p-BTK(Y233) = biological target: T1, p-BTK(Y233) (Mus musculus, UniProt P35991); experiment: Splenic p-BTK(Y233) level in mice after single RC-1 injection (western blot); conditions: for p-BTK(Y223) level, mean: Figure 5d, DMSO = 100; for p-BTK(Y233) quantification: Supplementary Figure 8, individual animals
T1 construct: from tissue; host or cells: spleen of female ICR mice
T1 sequence (P35991 whole entry): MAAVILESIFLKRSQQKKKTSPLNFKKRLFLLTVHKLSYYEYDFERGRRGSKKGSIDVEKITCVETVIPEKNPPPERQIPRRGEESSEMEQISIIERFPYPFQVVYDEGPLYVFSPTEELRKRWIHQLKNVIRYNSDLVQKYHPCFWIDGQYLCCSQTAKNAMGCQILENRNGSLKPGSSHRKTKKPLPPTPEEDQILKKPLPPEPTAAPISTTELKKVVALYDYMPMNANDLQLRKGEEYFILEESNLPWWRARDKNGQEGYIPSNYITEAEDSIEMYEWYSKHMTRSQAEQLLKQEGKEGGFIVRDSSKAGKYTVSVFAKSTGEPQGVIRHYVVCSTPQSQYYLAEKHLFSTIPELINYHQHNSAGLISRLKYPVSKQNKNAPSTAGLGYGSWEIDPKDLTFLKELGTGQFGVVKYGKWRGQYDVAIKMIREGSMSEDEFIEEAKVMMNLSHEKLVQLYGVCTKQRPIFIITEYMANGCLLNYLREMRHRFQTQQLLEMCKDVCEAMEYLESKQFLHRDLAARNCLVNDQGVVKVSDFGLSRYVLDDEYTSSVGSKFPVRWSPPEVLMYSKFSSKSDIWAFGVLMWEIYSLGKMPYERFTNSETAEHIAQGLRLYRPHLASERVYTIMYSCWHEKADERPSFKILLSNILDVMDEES
Description: as §1, §2, §3, §4, §5

[2] = female, mouse, ip, 20 mg kg^−1, i.p., ICR mice, plasma

CN(CCCNC(=O)CNc1cccc2c1C(=O)N(C1CCC(=O)NC1=O)C2=O)C(C)(C)C=C(C#N)C(=O)N1CCC[C@@H](n2nc(-c3ccc(Oc4ccccc4)cc3)c3c(N)ncnc32)C1 (stereo partly drawn) [RC-1]
IKZF3 level, mean (IKZF3; 1 injection): 34.6975 | IKZF3 level, mean (IKZF3; 7 injections): 73.2929 | IKZF3 quantification (IKZF3; RC-1 50 mg/kg, 50 mg/kg): 18.4248 and 33.3032 and 114.952 and 16.6702 | IKZF3 quantification (IKZF3; RC-1 100 mg/kg, 100 mg/kg): 2.1 and 60.2254 and 21.7286 | AUC [1, 2]: 72 µM·h | Cmax [1, 2]: 20 µM | half-life ([1]; female, mouse, plasma, ip, 20 mg kg^−1, i.p., ICR mice, read-out: plasma half-life (t1/2) (converted)): 3.4 h | plasma concentration maintained over 24 h ([1]; single i.p. injection 20 mg/kg): above 200 nM | p-BTK(Y223) level, mean (p-BTK(Y233); 1 injection): 96.2894 | p-BTK(Y223) level, mean (p-BTK(Y233); 7 injections): 85.9605 | p-BTK(Y233) quantification (p-BTK(Y233); RC-1 50 mg/kg, 50 mg/kg): 61.7244 and 50.2464 and 71.4895 and 26.7569 | p-BTK(Y233) quantification (p-BTK(Y233); RC-1 100 mg/kg, 100 mg/kg): 42.1872 and 10.8062 and 16.7176
